Data: ChEMBL document CHEMBL3407338, “Synthesis and structure-activity relationship of novel 1,4-diazabicyclo[2.2.2]octane derivatives as potent antimicrobial agents” (Eur J Med Chem, 2015)

Tests used:
Bacillus subtilis [1] = assay: Antimicrobial activity against Bacillus subtilis ATCC 6633 at 1 ug/ml after 24 hrs by agar diffusion method; format: functional; conditions: ATCC 6633, 24 h, read-out: DIZ
Staphylococcus aureus [2] = assay: Antimicrobial activity against Staphylococcus aureus ATCC 25923 at 1 ug/ml after 24 hrs by agar diffusion method; format: functional; conditions: ATCC 25923, 24 h, read-out: DIZ
Pseudomonas aeruginosa [3] = assay: Antimicrobial activity against Pseudomonas aeruginosa ATCC 9027 at 1 ug/ml after 24 hrs by agar diffusion method; format: functional; conditions: ATCC 9027, 24 h, read-out: DIZ
Salmonella enterica [4] = assay: Antimicrobial activity against Salmonella enterica ATCC 14028 at 1 ug/ml after 24 hrs by agar diffusion method; format: functional; conditions: ATCC 14028, 24 h, read-out: DIZ
Escherichia coli [5] = assay: Antimicrobial activity against Escherichia coli ATCC 25922 at 1 ug/ml after 24 hrs by agar diffusion method; format: functional; conditions: ATCC 25922, 24 h, read-out: DIZ
Candida albicans [6] = assay: Antimicrobial activity against Candida albicans ATCC 32354 at 1 ug/ml after 24 hrs by agar diffusion method; format: functional; conditions: ATCC 32354, 24 h, read-out: DIZ
Bacillus subtilis [7] = assay: Antimicrobial activity against 10^4 CFU/ml Bacillus subtilis ATCC 6633 after 22 hrs by serial microdilution method; format: functional; conditions: ATCC 6633, 22 h
Bacillus subtilis [8] = assay: Antimicrobial activity against 10^7 CFU/ml Bacillus subtilis ATCC 6633 after 22 hrs by serial microdilution method; format: functional; conditions: ATCC 6633, 22 h
Pseudomonas aeruginosa [9] = assay: Antimicrobial activity against 10^4 CFU/ml Pseudomonas aeruginosa ATCC 9027 after 22 hrs by serial microdilution method; format: functional; conditions: ATCC 9027, 22 h
Pseudomonas aeruginosa [10] = assay: Antimicrobial activity against 10^7 CFU/ml Pseudomonas aeruginosa ATCC 9027 after 22 hrs by serial microdilution method; format: functional; conditions: ATCC 9027, 22 h
Staphylococcus aureus [11] = assay: Antimicrobial activity against 10^4 CFU/ml Staphylococcus aureus ATCC 25923 after 22 hrs by serial microdilution method; format: functional; conditions: ATCC 25923, 22 h
Staphylococcus aureus [12] = assay: Antimicrobial activity against 10^7 CFU/ml Staphylococcus aureus ATCC 25923 after 22 hrs by serial microdilution method; format: functional; conditions: ATCC 25923, 22 h
Escherichia coli [13] = assay: Antimicrobial activity against 10^4 CFU/ml Escherichia coli ATCC 25922 after 22 hrs by serial microdilution method; format: functional; conditions: ATCC 25922, 22 h
Escherichia coli [14] = assay: Antimicrobial activity against 10^7 CFU/ml Escherichia coli ATCC 25922 after 22 hrs by serial microdilution method; format: functional; conditions: ATCC 25922, 22 h
Salmonella enterica [15] = assay: Antimicrobial activity against 10^4 CFU/ml Salmonella enterica ATCC 14028 after 22 hrs by serial microdilution method; format: functional; conditions: ATCC 14028, 22 h
Salmonella enterica [16] = assay: Antimicrobial activity against 10^7 CFU/ml Salmonella enterica ATCC 14028 after 22 hrs by serial microdilution method; format: functional; conditions: ATCC 14028, 22 h
Candida albicans [17] = assay: Antimicrobial activity against 10^4 CFU/ml Candida albicans ATCC 32354 after 22 hrs by serial microdilution method; format: functional; conditions: ATCC 32354, 22 h
Candida albicans [18] = assay: Antimicrobial activity against 10^7 CFU/ml Candida albicans ATCC 32354 after 22 hrs by serial microdilution method; format: functional; conditions: ATCC 32354, 22 h
Pseudomonas aeruginosa [19] = assay: Antimicrobial activity against 10^4 CFU/ml Pseudomonas aeruginosa ATCC 9027 assessed as reduction in CFU/ml at measured at 10 ug/ml after 2.5 hrs by time-kill kinetic study relative to control; format: functional; set-up: scale not given: the % may be the effect or the level left
Pseudomonas aeruginosa [20] = assay: Antimicrobial activity against 10^4 CFU/ml Pseudomonas aeruginosa ATCC 9027 assessed as reduction in CFU/ml at measured at 10 ug/ml after 5 hrs by time-kill kinetic study relative to control; format: functional; set-up: scale not given: the % may be the effect or the level left
Pseudomonas aeruginosa [21] = assay: Antimicrobial activity against 10^4 CFU/ml Pseudomonas aeruginosa ATCC 9027 assessed as reduction in CFU/ml at measured at 10 ug/ml after 22 hrs by time-kill kinetic study relative to control; format: functional; set-up: scale not given: the % may be the effect or the level left
Staphylococcus aureus [22] = assay: Antimicrobial activity against 10^4 CFU/ml Staphylococcus aureus ATCC 25923 assessed as reduction in CFU/ml at measured at 10 ug/ml after 2.5 hrs by time-kill kinetic study relative to control; format: functional; set-up: scale not given: the % may be the effect or the level left
Staphylococcus aureus [23] = assay: Antimicrobial activity against 10^4 CFU/ml Staphylococcus aureus ATCC 25923 assessed as reduction in CFU/ml at measured at 10 ug/ml after 5 hrs by time-kill kinetic study relative to control; format: functional; set-up: scale not given: the % may be the effect or the level left
Staphylococcus aureus [24] = assay: Antimicrobial activity against 10^4 CFU/ml Staphylococcus aureus ATCC 25923 assessed as reduction in CFU/ml at measured at 10 ug/ml after 22 hrs by time-kill kinetic study relative to control; format: functional; set-up: scale not given: the % may be the effect or the level left
Pseudomonas aeruginosa [25] = assay: Antimicrobial activity against 10^7 CFU/ml Pseudomonas aeruginosa ATCC 9027 assessed as reduction in CFU/ml at measured at 10 ug/ml after 2.5 hrs by time-kill kinetic study relative to control; format: functional; set-up: scale not given: the % may be the effect or the level left
Pseudomonas aeruginosa [26] = assay: Antimicrobial activity against 10^7 CFU/ml Pseudomonas aeruginosa ATCC 9027 assessed as reduction in CFU/ml at measured at 10 ug/ml after 5 hrs by time-kill kinetic study relative to control; format: functional; set-up: scale not given: the % may be the effect or the level left
Pseudomonas aeruginosa [27] = assay: Antimicrobial activity against 10^7 CFU/ml Pseudomonas aeruginosa ATCC 9027 assessed as reduction in CFU/ml at measured at 10 ug/ml after 22 hrs by time-kill kinetic study relative to control; format: functional; set-up: scale not given: the % may be the effect or the level left
Staphylococcus aureus [28] = assay: Antimicrobial activity against 10^7 CFU/ml Staphylococcus aureus ATCC 25923 assessed as reduction in CFU/ml at measured at 10 ug/ml after 2.5 hrs by time-kill kinetic study relative to control; format: functional; set-up: scale not given: the % may be the effect or the level left
Staphylococcus aureus [29] = assay: Antimicrobial activity against 10^7 CFU/ml Staphylococcus aureus ATCC 25923 assessed as reduction in CFU/ml at measured at 10 ug/ml after 5 hrs by time-kill kinetic study relative to control; format: functional; set-up: scale not given: the % may be the effect or the level left
Staphylococcus aureus [30] = assay: Antimicrobial activity against 10^7 CFU/ml Staphylococcus aureus ATCC 25923 assessed as reduction in CFU/ml at measured at 10 ug/ml after 22 hrs by time-kill kinetic study relative to control; format: functional; set-up: scale not given: the % may be the effect or the level left
RPMI-8226 = assay: Cytotoxicity against human RPMI8226 cells after 72 hrs by MTT assay; format: cell-based; conditions: RPMI-8226, 72 h
[31] = Cytotoxicity against mouse LMTK cells after 72 hrs by MTT assay; format: cell-based; conditions: L-M(TK-)
HEK-293T = assay: Cytotoxicity against human HEK293T cells after 72 hrs by MTT assay; format: cell-based
MEF = assay: Cytotoxicity against mouse MEF cells after 72 hrs by MTT assay; format: cell-based

## CCCCCCCCCC[N+]12CC[N+](CCCCC[N+]34CC[N+](CCCCCCCCCC)(CC3)CC4)(CC1)CC2.[Br-].[Br-].[Br-].[Br-]
Bacillus subtilis [1]
  zone of inhibition at 1 µg/mL: 10 mm
Staphylococcus aureus [2]
  zone of inhibition at 1 µg/mL: 10 mm
Pseudomonas aeruginosa [3]
  zone of inhibition at 1 µg/mL: 6 mm
Salmonella enterica [4]
  zone of inhibition at 1 µg/mL: 7 mm
Escherichia coli [5]
  zone of inhibition at 1 µg/mL: 10 mm
Candida albicans [6]
  zone of inhibition at 1 µg/mL: 10 mm
Bacillus subtilis [7]
  MBC: < 1.6 µg/mL
  MIC: < 1.6 µg/mL
Bacillus subtilis [8]
  MBC: 3.1 µg/mL
  MIC: 3.1 µg/mL
Pseudomonas aeruginosa [9]
  MBC: 1.6 µg/mL
  MIC: 1.6 µg/mL
Pseudomonas aeruginosa [10]
  MBC: 25 µg/mL
  MIC: 12.5 µg/mL
Staphylococcus aureus [11]
  MBC: 12.5 µg/mL
  MIC: 3.1 µg/mL
Staphylococcus aureus [12]
  MBC: 6.3 µg/mL
  MIC: 6.3 µg/mL
Escherichia coli [13]
  MBC: 6.3 µg/mL
  MIC: 6.3 µg/mL
Escherichia coli [14]
  MBC: 12.5 µg/mL
  MIC: 6.3 µg/mL
Salmonella enterica [15]
  MBC: 25 µg/mL
  MIC: 12.5 µg/mL
Salmonella enterica [16]
  MBC: 50 µg/mL
  MIC: 12.5 µg/mL
Candida albicans [17]
  MBC: < 1.6 µg/mL
  MIC: < 1.6 µg/mL
Candida albicans [18]
  MBC: < 1.6 µg/mL
  MIC: < 1.6 µg/mL
Pseudomonas aeruginosa [19]
  Activity: 62.3%
Pseudomonas aeruginosa [20]
  Activity: 99.2%
Pseudomonas aeruginosa [21]
  Activity: 25%
Staphylococcus aureus [22]
  Activity: 100%
Staphylococcus aureus [23]
  Activity: 100%
Staphylococcus aureus [24]
  Activity: 100%
Pseudomonas aeruginosa [25]
  Activity: 0%
Pseudomonas aeruginosa [26]
  Activity: 43%
Pseudomonas aeruginosa [27]
  Activity: 0%
Staphylococcus aureus [28]
  Activity: 100%
Staphylococcus aureus [29]
  Activity: 100%
Staphylococcus aureus [30]
  Activity: 100%
RPMI-8226
  IC50: 45.2 µg/mL
[31]
  IC50: 56.4 µg/mL
HEK-293T
  IC50: 93.8 µg/mL
MEF
  IC50: 23.4 µg/mL

## CCCCCCCCCCCC[N+]12CC[N+](CCCCC[N+]34CC[N+](CCCCCCCCCCCC)(CC3)CC4)(CC1)CC2.[Br-].[Br-].[Cl-].[Cl-]
Bacillus subtilis [1]
  zone of inhibition at 1 µg/mL: 10 mm
Staphylococcus aureus [2]
  zone of inhibition at 1 µg/mL: 10 mm
Pseudomonas aeruginosa [3]
  zone of inhibition at 1 µg/mL: 7 mm
Salmonella enterica [4]
  zone of inhibition at 1 µg/mL: 7 mm
Escherichia coli [5]
  zone of inhibition at 1 µg/mL: 9 mm
Candida albicans [6]
  zone of inhibition at 1 µg/mL: 10 mm
Bacillus subtilis [7]
  MBC: < 1.6 µg/mL
  MIC: < 1.6 µg/mL
Bacillus subtilis [8]
  MBC: 3.1 µg/mL
  MIC: 3.1 µg/mL
Pseudomonas aeruginosa [9]
  MBC: < 1.6 µg/mL
  MIC: < 1.6 µg/mL
Pseudomonas aeruginosa [10]
  MBC: 6.3 µg/mL
  MIC: 6.3 µg/mL
Staphylococcus aureus [11]
  MBC: 6.3 µg/mL
  MIC: 3.1 µg/mL
Staphylococcus aureus [12]
  MBC: 12.5 µg/mL
  MIC: 6.3 µg/mL
Escherichia coli [13]
  MBC: 3.1 µg/mL
  MIC: 3.1 µg/mL
Escherichia coli [14]
  MBC: 6.3 µg/mL
  MIC: 6.3 µg/mL
Salmonella enterica [15]
  MBC: 25 µg/mL
  MIC: 25 µg/mL
Salmonella enterica [16]
  MBC: 50 µg/mL
  MIC: 25 µg/mL
Candida albicans [17]
  MBC: 6.3 µg/mL
  MIC: 3.1 µg/mL
Candida albicans [18]
  MBC: 12.5 µg/mL
  MIC: 12.5 µg/mL
Pseudomonas aeruginosa [19]
  Activity: 99.9%
Pseudomonas aeruginosa [20]
  Activity: 100%
Pseudomonas aeruginosa [21]
  Activity: 100%
Staphylococcus aureus [22]
  Activity: 100%
Staphylococcus aureus [23]
  Activity: 100%
Staphylococcus aureus [24]
  Activity: 100%
Pseudomonas aeruginosa [25]
  Activity: 100%
Pseudomonas aeruginosa [26]
  Activity: 100%
Pseudomonas aeruginosa [27]
  Activity: 100%
Staphylococcus aureus [28]
  Activity: 100%
Staphylococcus aureus [29]
  Activity: 100%
Staphylococcus aureus [30]
  Activity: 100%
RPMI-8226
  IC50: 11.7 µg/mL
[31]
  IC50: 25.6 µg/mL
HEK-293T
  IC50: 23.4 µg/mL
MEF
  IC50: 12.7 µg/mL
